This passage reports IC50 results from ChEMBL document CHEMBL1134056, “Diaryl ether inhibitors of farnesyl-protein transferase” (Bioorg Med Chem Lett, 2001).

The target of experiment [1] is Geranylgeranyl transferase type I (Homo sapiens, UniProt P49354+P53609). Kind of experiment: Inhibition of rate of incorporation of [3H]GGPP into a biotinylated peptide corresponding to C-terminus of human Ki-Ras by human geranylgeranyl-transferase type I. Format: protein-complex assay.
In experiment [2] the target is Protein farnesyltransferase (Homo sapiens, UniProt P49354+P49356). Kind of experiment: Inhibition of rate of incorporation of [3H]FPP into recombinant Ras-CVIM by human farnesyltransferase. The experiment is classed as protein-complex assay.
The target in experiment [3] is Protein farnesyltransferase (Rattus norvegicus, UniProt Q02293+Q04631). Description: Displacement of radiolabeled FTI from Farnesyltransferase in cultured v-Ha-ras-transformed RAT1 cells. The experiment is classed as functional, cell-based.

For orientation: IC50 means the midpoint of a concentration-inhibition curve.

Consider `N#Cc1ccc(Cn2ccnc2)cc1Oc1cccc(F)c1`, for which the IC50 turned out to be 4400 nM in experiment [1] and 180 nM in experiment [2].
On to `N#Cc1ccc(Cn2ccnc2)cc1Oc1ccc(Cl)c(Cl)c1`, for which the values for the IC50 in experiment [1] and in experiment [2] were 1200 nM and 28 nM, respectively.
Regarding `COc1ccccc1Oc1cc(Cn2ccnc2)ccc1C#N`, the IC50 in experiment [1] worked out at 28000 nM; in experiment [2] it was 340 nM.
Turning to `N#Cc1ccc(Cn2ccnc2)cc1OCCCc1ccccc1`, the results for the IC50 in experiment [1] and in experiment [2] were 3100 nM and 200 nM, respectively.
For `C#Cc1cccc(Oc2cc(Cn3ccnc3)ccc2C#N)c1` the same measures were 2600 nM and 27 nM.
With `N#Cc1ccc(Cn2ccnc2)cc1[S+]([O-])c1ccc(Cl)cc1Cl` (stereo not drawn), the IC50 came out at 2000 nM in experiment [1] and 390 nM in experiment [2].
For `COc1ccc(Oc2cc(Cn3ccnc3)ccc2C#N)cc1` the same measures were 3500 nM and 290 nM.
Consider `N#Cc1ccc(Cn2ccnc2)cc1Sc1ccc(Cl)cc1Cl`, for which the results for the IC50 in experiment [1], in experiment [2] and in experiment [3] were 23 nM, under 1 nM and 96 nM, respectively.
Take `N#Cc1ccc(Cn2ccnc2)cc1OCc1ccccc1`: the IC50 in experiment [1] came out at 6800 nM; in experiment [2], 1500 nM.
For `CC(=O)c1cccc(Oc2cc(Cn3ccnc3)ccc2C#N)c1` the same measures were 6100 nM and 45 nM.
For `COc1ccc(OC)c(Oc2cc(Cn3ccnc3)ccc2C#N)c1` the same measures were 18000 nM and 100 nM.
The corresponding values for `N#Cc1ccc(Cn2ccnc2)cc1Oc1cccc(Nc2ccccc2)c1` are 630 nM and 17 nM.
Turning to `N#Cc1ccc(Cn2ccnc2)cc1Oc1cccc(Cl)c1`, the IC50 in experiment [1] came to 3200 nM; in experiment [2], 53 nM.
The corresponding values for `N#Cc1ccc(Cn2ccnc2)cc1Oc1cccc(C(=O)c2ccccc2)c1` are 840 nM and 13 nM.
In the case of `N#Cc1ccc(Cn2ccnc2)cc1Oc1cccc(Oc2ccccc2)c1`, the IC50 is 280 nM in experiment [1] and 14 nM in experiment [2].
As for `N#Cc1ccc(Cn2ccnc2)cc1Oc1cccc2ccccc12`, the IC50 in experiment [1] was found to be 3200 nM; in experiment [2] it was 150 nM.
`COc1cccc(Oc2cc(Cn3ccnc3)ccc2C#N)c1OC`: the IC50 in experiment [1] worked out at 15000 nM; in experiment [2], 1 nM; in experiment [3], 14 nM.
As to `N#Cc1ccc(Cn2ccnc2)cc1Oc1ccccc1Cl`, the results for the IC50 in experiment [1] and in experiment [2] were 1100 nM and 41 nM, respectively.
For `N#Cc1ccc(Cn2ccnc2)cc1OCCCCc1ccccc1`, the IC50 in experiment [1] was determined as 380 nM; in experiment [2], 440 nM.
The corresponding values for `N#Cc1ccc(Cn2ccnc2)cc1S(=O)(=O)c1ccc(Cl)cc1Cl` are 8800 nM and 5400 nM.
For `N#Cc1ccc(Cn2ccnc2)cc1Oc1cccc(NC(=O)c2ccccc2)c1` the same measures were 2000 nM and 38 nM.
`N#Cc1ccc(Cn2ccnc2)cc1Oc1cccc(Br)c1`: the IC50 is 2900 nM in experiment [1] and 38 nM in experiment [2].
The corresponding values for `N#Cc1ccc(Cn2ccnc2)cc1Oc1ccc(Cl)cc1` are 920 nM and 38 nM.
For the compound `N#Cc1ccc(Cn2ccnc2)cc1Oc1ccc(-c2ccccc2)cc1`, it took 1300 nM to reach half-maximal inhibition in experiment [1] (IC50).
Regarding `N#Cc1ccc(Cn2ccnc2)cc1Oc1ccccc1`, the IC50 in experiment [1] stood at 3700 nM; in experiment [2], 230 nM.
With `CCC1(c2cccc(Oc3cc(Cn4ccnc4)ccc3C#N)c2)CCCCN(C)C1=O` (stereo not drawn), the IC50 in experiment [1] worked out at 7.1 nM; in experiment [2], 2.9 nM; in experiment [3], 4.9 nM.
Take `COc1cccc(Oc2cc(Cn3ccnc3)ccc2C#N)c1`: the IC50 in experiment [1] is 3500 nM; in experiment [2], 40 nM.
For `CC(C)(C)c1cccc(Oc2cc(Cn3ccnc3)ccc2C#N)c1` the same measures were 520 nM and 27 nM.
On to `N#Cc1ccc(Cn2ccnc2)cc1Oc1cccc(Cc2ccccc2)c1`, for which the IC50 in experiment [1] was 600 nM; in experiment [2], 230 nM.
The corresponding values for `N#Cc1ccc(Cn2ccnc2)cc1Oc1cccc(C(=O)Nc2ccccc2)c1` are 3300 nM and 38 nM.
`N#Cc1ccc(Cn2ccnc2)cc1Oc1cccc(-c2ccccc2)c1`: the IC50 in experiment [1] was 520 nM; in experiment [2] it was 9.6 nM.
With `Cc1ncn(Cc2ccc(C#N)cc2)c1CN1CC(=O)N(c2cccc(Cl)c2)CC1CCS(C)(=O)=O` (stereo not drawn), the IC50 in experiment [2] is 475 nM.
Regarding `N#Cc1ccc(Cn2ccnc2)cc1Oc1ccc2ccccc2c1`, the half-inhibitory concentration (IC50) in experiment [1] amounted to 520 nM; in experiment [2] it was 1.1 nM.
Consider `N#Cc1cccc(Oc2cc(Cn3ccnc3)ccc2C#N)c1`, for which the 50% inhibitory concentration (IC50) in experiment [1] is 16000 nM; in experiment [2], 130 nM.
For the compound `N#Cc1ccc(Cn2ccnc2)cc1OCCc1ccc(-c2ccccc2)cc1`, the IC50 in experiment [1] was found to be 12000 nM; in experiment [2], 86 nM.
Take `N#Cc1ccc(Cn2ccnc2)cc1OCCc1ccccc1`: the IC50 in experiment [1] was found to be 7000 nM; in experiment [2], 860 nM.
For `N#Cc1ccc(Cn2ccnc2)cc1Oc1ccccc1-c1ccccc1` the same measures were 740 nM and 110 nM.
As for `N#Cc1ccc(Cn2ccnc2)cc1Oc1ccc(Cl)cc1Cl`, the IC50 in experiment [1] came to 280 nM; in experiment [2] it was 8 nM; in experiment [3], 260 nM.
